# According to ChEMBL document CHEMBL1944551, “An integrated computational workflow for efficient and quantitative modeling of renin inhibitors” (Bioorg Med Chem, 2012):
# Assay: physchem
# Conditions: octanol/buffer
row,SMILES,logP
1,COc1ccccc1COCCCOc1ccc(N2C(=O)CNC[C@@H]2C(=O)N(C)CCc2ccccc2)cc1,3.9
2,COc1ccccc1COCCCOc1ncc(N2C(=O)CNC[C@@H]2C(=O)N(C)CCc2ccccc2)cn1,1.89
3,CN(CCc1ccccc1)C(=O)[C@H]1CNCC(=O)N1c1ccc(CCCOc2cccc(Cl)c2)cc1,4.75
4,CN(CCc1ccccc1)C(=O)[C@H]1CNCC(=O)N1c1ccc(CCCOc2c(F)ccc(F)c2F)cc1,4.57
5,Cc1cc(Cl)c(OCCOc2ccc(N3C(=O)CNC[C@@H]3C(=O)N(C)CCCc3ccccc3)cc2)c(Cl)c1,5.12
6,Cc1cc(Cl)c(OCCOc2ccc(N3C(=O)CNC[C@@H]3C(=O)N(C)CCCc3ccccc3)cn2)c(Cl)c1,4.29
7,CN(CCCc1ccccc1)C(=O)[C@H]1CNCC(=O)N1c1ccc(COC(=O)c2ccccc2)cc1,4.02
8,CN(CCCc1ccccc1)C(=O)[C@H]1CNCC(=O)N1c1ccc(OCCCOCc2ccccc2)cc1,4.39
9,COc1ccccc1COCCCOc1ccc(N2C(=O)CNC[C@@H]2C(=O)N(C)CCCc2ccccc2)cc1,4.35
10,COc1ccccc1COCCCOc1ncc(N2C(=O)CNC[C@@H]2C(=O)N(C)CCCc2ccccc2)cn1,2.34
11,CN(CCCc1ccccc1)C(=O)[C@H]1CNCC(=O)N1c1ccc(CCCOc2cccc(Cl)c2)cc1,5.19
12,CN(CCCc1ccccc1)C(=O)[C@H]1CNCC(=O)N1c1ccc(CCCOc2c(F)ccc(F)c2F)cc1,5.01
13,Cc1cc(Cl)c(OCCOc2ccc(N3C(=O)CNC[C@@H]3C(=O)N(Cc3ccc(Cl)cc3)C3CC3)cc2)c(Cl)c1,5.83
14,Cc1cc(Cl)c(OCCOc2ccc(N3C(=O)CNC[C@@H]3C(=O)N(Cc3ccc(Cl)cc3)C3CC3)cn2)c(Cl)c1,5.01
15,O=C(OCc1ccc(N2C(=O)CNC[C@@H]2C(=O)N(Cc2ccc(Cl)cc2)C2CC2)cc1)c1ccccc1,4.73
16,O=C([C@H]1CNCC(=O)N1c1ccc(OCCCOCc2ccccc2)cc1)N(Cc1ccc(Cl)cc1)C1CC1,5.11
17,COc1ccccc1COCCCOc1ccc(N2C(=O)CNC[C@@H]2C(=O)N(Cc2ccc(Cl)cc2)C2CC2)cc1,5.06
18,COc1ccccc1COCCCOc1ncc(N2C(=O)CNC[C@@H]2C(=O)N(Cc2ccc(Cl)cc2)C2CC2)cn1,3.05
19,O=C([C@H]1CNCC(=O)N1c1ccc(CCCOc2cccc(Cl)c2)cc1)N(Cc1ccc(Cl)cc1)C1CC1,5.91
20,O=C([C@H]1CNCC(=O)N1c1ccc(CCCOc2c(F)ccc(F)c2F)cc1)N(Cc1ccc(Cl)cc1)C1CC1,5.73
21,COc1c(CN(C(=O)[C@H]2CNCC(=O)N2c2ccc(OCCOc3c(Cl)cc(C)cc3Cl)cc2)C2CC2)ccnc1C,4.22
22,COc1c(CN(C(=O)[C@H]2CNCC(=O)N2c2ccc(OCCOc3c(Cl)cc(C)cc3Cl)nc2)C2CC2)ccnc1C,3.39
23,COc1c(CN(C(=O)[C@H]2CNCC(=O)N2c2ccc(COC(=O)c3ccccc3)cc2)C2CC2)ccnc1C,3.12
24,COc1c(CN(C(=O)[C@H]2CNCC(=O)N2c2ccc(OCCCOCc3ccccc3)cc2)C2CC2)ccnc1C,3.49
25,COc1ccccc1COCCCOc1ccc(N2C(=O)CNC[C@@H]2C(=O)N(Cc2ccnc(C)c2OC)C2CC2)cc1,3.45
26,COc1ccccc1COCCCOc1ncc(N2C(=O)CNC[C@@H]2C(=O)N(Cc2ccnc(C)c2OC)C2CC2)cn1,1.44

row,SMILES,logP
1,COc1c(CN(C(=O)[C@H]2CNCC(=O)N2c2ccc(CCCOc3cccc(Cl)c3)cc2)C2CC2)ccnc1C,4.29
2,COc1c(CN(C(=O)[C@H]2CNCC(=O)N2c2ccc(CCCOc3c(F)ccc(F)c3F)cc2)C2CC2)ccnc1C,4.12
3,Cc1cc(Cl)c(OCCOc2ccc(N3C(=O)CNC[C@@H]3C(=O)N(Cc3ccccc3Cl)C3CC3)cc2)c(Cl)c1,5.83
4,Cc1cc(Cl)c(OCCOc2ccc(N3C(=O)CNC[C@@H]3C(=O)N(Cc3ccccc3Cl)C3CC3)cn2)c(Cl)c1,5
5,O=C(OCc1ccc(N2C(=O)CNC[C@@H]2C(=O)N(Cc2ccccc2Cl)C2CC2)cc1)c1ccccc1,4.73
6,O=C([C@H]1CNCC(=O)N1c1ccc(OCCCOCc2ccccc2)cc1)N(Cc1ccccc1Cl)C1CC1,5.11
7,COc1ccccc1COCCCOc1ccc(N2C(=O)CNC[C@@H]2C(=O)N(Cc2ccccc2Cl)C2CC2)cc1,5.06
8,COc1ccccc1COCCCOc1ncc(N2C(=O)CNC[C@@H]2C(=O)N(Cc2ccccc2Cl)C2CC2)cn1,3.05
9,O=C([C@H]1CNCC(=O)N1c1ccc(CCCOc2cccc(Cl)c2)cc1)N(Cc1ccccc1Cl)C1CC1,5.9
10,O=C([C@H]1CNCC(=O)N1c1ccc(CCCOc2c(F)ccc(F)c2F)cc1)N(Cc1ccccc1Cl)C1CC1,5.73
11,O=C(OCc1ccc(N2C(=O)CNC[C@@H]2C(=O)N(Cc2cccc(Cl)c2)C2CC2)cc1)c1ccccc1,4.77
12,O=C([C@H]1CNCC(=O)N1c1ccc(OCCCOCc2ccccc2)cc1)N(Cc1cccc(Cl)c1)C1CC1,5.14
13,COc1ccccc1COCCCOc1ccc(N2C(=O)CNC[C@@H]2C(=O)N(Cc2cccc(Cl)c2)C2CC2)cc1,5.1
14,COc1ccccc1COCCCOc1ncc(N2C(=O)CNC[C@@H]2C(=O)N(Cc2cccc(Cl)c2)C2CC2)cn1,3.09
15,O=C([C@H]1CNCC(=O)N1c1ccc(CCCOc2cccc(Cl)c2)cc1)N(Cc1cccc(Cl)c1)C1CC1,5.94
16,O=C([C@H]1CNCC(=O)N1c1ccc(CCCOc2c(F)ccc(F)c2F)cc1)N(Cc1cccc(Cl)c1)C1CC1,5.77
17,Cc1cc(Cl)c(OCCOc2ccc(N3C(=O)CNC[C@@H]3C(=O)N(Cc3cccc(C)c3C)C3CC3)cc2)c(Cl)c1,5.83
18,Cc1cc(Cl)c(OCCOc2ccc(N3C(=O)CNC[C@@H]3C(=O)N(Cc3cccc(C)c3C)C3CC3)cn2)c(Cl)c1,5.01
19,Cc1cccc(CN(C(=O)[C@H]2CNCC(=O)N2c2ccc(COC(=O)c3ccccc3)cc2)C2CC2)c1C,4.73
20,Cc1cccc(CN(C(=O)[C@H]2CNCC(=O)N2c2ccc(OCCCOCc3ccccc3)cc2)C2CC2)c1C,5.11
21,COc1ccccc1COCCCOc1ccc(N2C(=O)CNC[C@@H]2C(=O)N(Cc2cccc(C)c2C)C2CC2)cc1,5.06
22,COc1ccccc1COCCCOc1ncc(N2C(=O)CNC[C@@H]2C(=O)N(Cc2cccc(C)c2C)C2CC2)cn1,3.05
23,Cc1cccc(CN(C(=O)[C@H]2CNCC(=O)N2c2ccc(CCCOc3cccc(Cl)c3)cc2)C2CC2)c1C,5.91
24,Cc1cccc(CN(C(=O)[C@H]2CNCC(=O)N2c2ccc(CCCOc3c(F)ccc(F)c3F)cc2)C2CC2)c1C,5.73
25,COc1cccc(CN(C(=O)[C@H]2CNCC(=O)N2c2ccc(OCCOc3c(Cl)cc(C)cc3Cl)cc2)C2CC2)c1C,5.49
26,COc1cccc(CN(C(=O)[C@H]2CNCC(=O)N2c2ccc(OCCOc3c(Cl)cc(C)cc3Cl)nc2)C2CC2)c1C,4.66

row,SMILES,logP
1,COc1cccc(CN(C(=O)[C@H]2CNCC(=O)N2c2ccc(COC(=O)c3ccccc3)cc2)C2CC2)c1C,4.39
2,COc1cccc(CN(C(=O)[C@H]2CNCC(=O)N2c2ccc(OCCCOCc3ccccc3)cc2)C2CC2)c1C,4.76
3,COc1ccccc1COCCCOc1ccc(N2C(=O)CNC[C@@H]2C(=O)N(Cc2cccc(OC)c2C)C2CC2)cc1,4.72
4,COc1ccccc1COCCCOc1ncc(N2C(=O)CNC[C@@H]2C(=O)N(Cc2cccc(OC)c2C)C2CC2)cn1,2.71
5,COc1cccc(CN(C(=O)[C@H]2CNCC(=O)N2c2ccc(CCCOc3cccc(Cl)c3)cc2)C2CC2)c1C,5.56
6,COc1cccc(CN(C(=O)[C@H]2CNCC(=O)N2c2ccc(CCCOc3c(F)ccc(F)c3F)cc2)C2CC2)c1C,5.39
7,Cc1cc(Cl)c(OCCOc2ccc(N3C(=O)CNC[C@@H]3C(=O)N(Cc3cccc(Cl)c3Cl)C3CC3)cc2)c(Cl)c1,6.42
8,Cc1cc(Cl)c(OCCOc2ccc(N3C(=O)CNC[C@@H]3C(=O)N(Cc3cccc(Cl)c3Cl)C3CC3)cn2)c(Cl)c1,5.59
9,O=C(OCc1ccc(N2C(=O)CNC[C@@H]2C(=O)N(Cc2cccc(Cl)c2Cl)C2CC2)cc1)c1ccccc1,5.32
10,O=C([C@H]1CNCC(=O)N1c1ccc(OCCCOCc2ccccc2)cc1)N(Cc1cccc(Cl)c1Cl)C1CC1,5.7
11,COc1ccccc1COCCCOc1ccc(N2C(=O)CNC[C@@H]2C(=O)N(Cc2cccc(Cl)c2Cl)C2CC2)cc1,5.65
12,COc1ccccc1COCCCOc1ncc(N2C(=O)CNC[C@@H]2C(=O)N(Cc2cccc(Cl)c2Cl)C2CC2)cn1,3.64
13,O=C([C@H]1CNCC(=O)N1c1ccc(CCCOc2cccc(Cl)c2)cc1)N(Cc1cccc(Cl)c1Cl)C1CC1,6.49
14,O=C([C@H]1CNCC(=O)N1c1ccc(CCCOc2c(F)ccc(F)c2F)cc1)N(Cc1cccc(Cl)c1Cl)C1CC1,6.32
15,Cc1cc(Cl)c(OCCOc2ccc(N3C(=O)CNC[C@@H]3C(=O)NCc3ccccc3)cc2)c(Cl)c1,4.39
16,Cc1cc(Cl)c(OCCOc2ccc(N3C(=O)CNC[C@@H]3C(=O)NCc3ccccc3)cn2)c(Cl)c1,3.56
17,O=C(OCc1ccc(N2C(=O)CNC[C@@H]2C(=O)NCc2ccccc2)cc1)c1ccccc1,3.29
18,O=C(NCc1ccccc1)[C@H]1CNCC(=O)N1c1ccc(OCCCOCc2ccccc2)cc1,3.67
19,COc1ccccc1COCCCOc1ccc(N2C(=O)CNC[C@@H]2C(=O)NCc2ccccc2)cc1,3.62
20,COc1ccccc1COCCCOc1ncc(N2C(=O)CNC[C@@H]2C(=O)NCc2ccccc2)cn1,1.61
21,O=C(NCc1ccccc1)[C@H]1CNCC(=O)N1c1ccc(CCCOc2cccc(Cl)c2)cc1,4.46
22,O=C(NCc1ccccc1)[C@H]1CNCC(=O)N1c1ccc(CCCOc2c(F)ccc(F)c2F)cc1,4.29
23,Cc1cc(Cl)c(OCCOc2ccc(N3C(=O)CNC[C@@H]3C(=O)N(C)CCc3ccccc3)cc2)c(Cl)c1,4.68
24,Cc1cc(Cl)c(OCCOc2ccc(N3C(=O)CNC[C@@H]3C(=O)N(C)CCc3ccccc3)cn2)c(Cl)c1,3.85
25,CN(CCc1ccccc1)C(=O)[C@H]1CNCC(=O)N1c1ccc(COC(=O)c2ccccc2)cc1,3.58
26,CN(CCc1ccccc1)C(=O)[C@H]1CNCC(=O)N1c1ccc(OCCCOCc2ccccc2)cc1,3.95

# Same assay, conditions: octanol/water
row,SMILES,logP
1,COc1ccccc1COCCCOc1ncc(N2C(=O)CNC[C@@H]2C(=O)NCc2ccccc2Cl)cn1,2.2
